Reference: patent US11174251B2, “Compositions and methods for inhibition of the JAK pathway” (Rigel Pharmaceuticals, Inc., priority 2010, dated 2021)
Counter-ions that a name gives are not always drawn.

Molecular target: T1, JAK3 (Homo sapiens, UniProt P52333)
T1 construct: The Ramos B-cell line was acquired from ATCC (ATCC Catalog No. CRL-1596); host or cells: Ramos B-cell line (human)
T1 sequence (P52333 1-1124): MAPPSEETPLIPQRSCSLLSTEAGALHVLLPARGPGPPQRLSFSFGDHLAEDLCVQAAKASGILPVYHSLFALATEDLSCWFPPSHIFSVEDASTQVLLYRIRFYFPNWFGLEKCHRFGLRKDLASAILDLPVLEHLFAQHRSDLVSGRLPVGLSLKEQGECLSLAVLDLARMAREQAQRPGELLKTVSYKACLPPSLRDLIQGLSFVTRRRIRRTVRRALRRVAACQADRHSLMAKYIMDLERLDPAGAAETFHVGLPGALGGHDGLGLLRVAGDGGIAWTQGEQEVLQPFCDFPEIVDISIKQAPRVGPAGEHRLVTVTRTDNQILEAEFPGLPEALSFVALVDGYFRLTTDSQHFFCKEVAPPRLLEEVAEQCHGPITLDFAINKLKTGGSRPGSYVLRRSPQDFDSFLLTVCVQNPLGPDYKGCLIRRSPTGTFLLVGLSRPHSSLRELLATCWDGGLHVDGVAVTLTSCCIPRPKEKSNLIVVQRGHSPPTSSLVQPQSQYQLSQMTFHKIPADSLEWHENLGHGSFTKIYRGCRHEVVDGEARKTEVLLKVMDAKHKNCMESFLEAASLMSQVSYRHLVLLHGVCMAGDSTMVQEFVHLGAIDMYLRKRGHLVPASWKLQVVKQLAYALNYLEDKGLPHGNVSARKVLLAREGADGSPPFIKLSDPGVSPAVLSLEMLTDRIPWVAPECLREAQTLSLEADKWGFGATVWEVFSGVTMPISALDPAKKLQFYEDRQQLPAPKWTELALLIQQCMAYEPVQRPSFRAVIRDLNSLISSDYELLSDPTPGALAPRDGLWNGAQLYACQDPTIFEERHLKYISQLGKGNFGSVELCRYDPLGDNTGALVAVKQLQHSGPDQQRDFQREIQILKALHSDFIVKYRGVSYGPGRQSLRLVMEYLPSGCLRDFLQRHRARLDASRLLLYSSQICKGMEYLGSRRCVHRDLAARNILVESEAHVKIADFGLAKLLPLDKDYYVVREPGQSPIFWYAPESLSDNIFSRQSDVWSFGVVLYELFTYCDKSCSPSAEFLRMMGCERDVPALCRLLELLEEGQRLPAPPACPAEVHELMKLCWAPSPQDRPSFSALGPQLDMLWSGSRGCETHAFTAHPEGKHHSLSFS
Experiment: Assay for CD23 expression on Ramos B-cells stimulated by IL-4 (Table IV: ability to inhibit JAK3 activity)
Type: cell-based
Conditions: tested under conditions described in Example 3 (so in the source)
Outline: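 IL-4-induced CD23 surface expression on human Ramos B cells, detected by flow cytometry after 20–24 h stimulation (IL-4 final 50 units/mL). Compound or DMSO added 1 h beforehand at 37 °C; cells kept in RPMI with 5% serum.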

Row | Compound | IC50 [nM]
1 | Cc1cnc(Nc2cc(C)c(C)c(C)c2)nc1Nc1ccc2oc(=O)n(COP(=O)(O)OCCN(C)C)c2c1 [Compound I-133, N4-{3-[2-(N,N-dimethylamino)ethoxy]phosphinyloxymethyl-2-oxo-2,3-dihydro-1,3-benzoxazol-5-yl}-5-methyl-N2-(3,4,5-trimethyl)phenyl-2,4-pyrimidinediamine] | 5000 to 10000
2 | Cc1cnc(Nc2cc(C)c(C)c(C)c2)nc1Nc1cc(-c2ccc3c(c2)OCO3)c2oc(=O)[nH]c2c1 [Compound I-88, 5-(2-(3,4,5-trimethylphenylamino)-5-methylpyrimidin-4-ylamino)-7-(benzo[d][1,3]dioxol-6-yl)benzo[d]oxazol-2(3H)-one] | > 10000
3 | Cc1cc(Nc2ncc(CN3CCCC3)c(Nc3ccc4oc(=O)[nH]c4c3)n2)cc(C)c1C [Compound I-98, 5-(2-(3,4,5-trimethylphenylamino)-5-((pyrrolidin-1-yl)methyl)pyrimidin-4-ylamino)benzo[d]oxazol-2(3H)-one] | 5000 to 10000
4 | Cc1ccc(Nc2ncc(F)c(Nc3ccc4oc(=O)[nH]c4c3)n2)cc1 [Compound I-202, 5-(2-(p-tolylamino)-5-fluoropyrimidin-4-ylamino)benzo[d]oxazol-2(3H)-one trifluoroacetate salt] | 500 to 5000
5 | Cc1cc(Nc2ncc([N+](=O)[O-])c(Nc3ccc4oc(=O)[nH]c4c3)n2)cc(C)c1C [Compound I-42, 5-(5-nitro-2-(3,4,5-trimethylphenylamino)pyrimidin-4-ylamino)benzo[d]oxazol-2(3H)-one trifluoroacetate salt] | > 10000
6 | CC(C)(C)c1ccc(Nc2ncc(F)c(Nc3ccc4oc(=O)[nH]c4c3)n2)cc1 [Compound I-201, 5-(2-(4-tert-butylphenylamino)-5-fluoropyrimidin-4-ylamino)benzo[d]oxazol-2(3H)-one trifluoroacetate salt] | 500 to 5000
7 | Cc1cnc(Nc2cccc(C#N)c2F)nc1Nc1ccc2oc(=O)[nH]c2c1 [Compound I-72, 2-fluoro-3-(5-methyl-4-(2-oxo-2,3-dihydrobenzo[d]oxazol-5-ylamino)pyrimidin-2-ylamino)benzonitrile trifluoroacetate salt] | < 500
8 | CCc1ccc(Nc2ncc(Cl)c(Nc3ccc4oc(=O)[nH]c4c3)n2)c(F)c1OC [Compound I-71, 5-(5-chloro-2-(4-ethyl-2-fluoro-3-methoxyphenylamino)pyrimidin-4-ylamino)benzo[d]oxazol-2(3H)-one trifluoroacetate salt] | < 500
9 | COc1cc(Nc2ncc(F)c(Nc3ccc4oc(=O)[nH]c4c3)n2)cc(C)c1OC [Compound I-182, 5-(2-(3,4-dimethoxy-5-methylphenylamino)-5-fluoropyrimidin-4-ylamino)benzo[d]oxazol-2(3H)-one trifluoroacetate salt] | < 500
10 | Cc1cnc(Nc2cc(C)c3c(c2)C(=O)OC3)nc1Nc1ccc2oc(=O)[nH]c2c1 [II-13, 5-methyl-N4-(2-oxo-2,3-dihydro-1,3-benzoxazol-5-yl)-N2-(1-oxo-1,3-dihydro-4-methylisobenzofuran-6-yl)-2,4-pyrimidinediamine] | < 500
11 | Cc1cnc(Nc2cc(C)c(F)c(C)c2)nc1Nc1ccc2oc(=O)[nH]c2c1 [Compound I-146, N2-(3,5-dimethyl-4-fluoro)phenyl-5-methyl-N4-(2-oxo-2,3-dihydro-1,3-benzoxazol-5-yl)-2,4-pyrimidinediamine benzenesulfonic acid salt] | < 500
12 | CCNc1cc(Nc2ncc(C)c(Nc3ccc4oc(=O)[nH]c4c3)n2)cc(C)c1C [Compound I-85, 5-(2-(3-(ethylamino)-4,5-dimethylphenylamino)-5-methylpyrimidin-4-ylamino)benzo[d]oxazol-2(3H)-one formate salt] | < 500
13 | Cc1cnc(Nc2cc(C)c(C)c(CO)c2)nc1Nc1ccc2oc(=O)[nH]c2c1 [Compound I-147, N2-(3,4-dimethyl-5-hydroxymethyl)phenyl-5-methyl-N4-(2-oxo-2,3-dihydro-1,3-benzoxazol-5-yl)-2,4-pyrimidinediamine] | < 500
14 | CCCCc1ccc(Nc2ncc(C)c(Nc3ccc4oc(=O)[nH]c4c3)n2)cc1C [Compound I-148, N2-(4-n-butyl-3-methyl)phenyl-5-methyl-N4-(2-oxo-2,3-dihydro-1,3-benzoxazol-5-yl)-2,4-pyrimidinediamine] | 5000 to 10000
15 | Cc1cnc(Nc2cc(C)c(C)c(C)c2)nc1Nc1ccc2oc(=O)[nH]c2c1 [Compound I-131, 5-methyl-N4-(2-oxo-2,3-dihydro-1,3-benzoxazol-5-yl)-N2-(3,4,5-trimethyl)phenyl-2,4-pyrimidinediamine benzenesulfonic acid salt] | < 500
16 | COc1cc(C)cc(Nc2ncc(F)c(Nc3cc(F)c4oc(=O)[nH]c4c3)n2)c1 [Compound I-179, 5-(2-(3-methoxy-5-methylphenylamino)-5-fluoropyrimidin-4-ylamino)-7-fluorobenzo[d]oxazol-2(3H)-one trifluoroacetate salt] | > 10000
17 | Cc1cnc(Nc2cc(C)c(C)c(C(=O)O)c2)nc1Nc1ccc2oc(=O)[nH]c2c1 [Compound I-145, N2-(3-carboxy-4,5-dimethyl)phenyl-5-methyl-N4-(2-oxo-2,3-dihydro-1,3-benzoxazol-5-yl)-2,4-pyrimidinediamine] | 500 to 5000
18 | COc1cc(Nc2ncc(C)c(Nc3ccc4oc(=O)[nH]c4c3)n2)cc(C)c1Cl [Compound I-124, 5-(2-(4-chloro-3-methoxy-5-methylphenylamino)-5-methylpyrimidin-4-ylamino)benzo[d]oxazol-2(3H)-one trifluoroacetate salt] | < 500
19 | Cc1ccc(Nc2ncc(C)c(Nc3ccc4oc(=O)[nH]c4c3)n2)cc1N(C)C [Compound I-17, 5-[2-(3-Dimethylamino-4-methyl-phenylamino)-5-methyl-pyrimidin-4-ylamino]-3H-benzooxazol-2-one] | < 500

Now from value to molecule:

Row | IC50 [nM] | Compound
20 | < 500 | Cc1cc(Nc2nc(Nc3cccc(S(C)(=O)=O)c3)ncc2F)cc2[nH]c(=O)oc12 [Compound I-172, 5-(2-(3-(methylsulfonyl)phenylamino)-5-fluoropyrimidin-4-ylamino)-7-methylbenzo[d]oxazol-2(3H)-one trifluoroacetate salt]
21 | < 500 | CC(NC1CC1)c1ccc(Nc2ncc(F)c(Nc3ccc4oc(=O)[nH]c4c3)n2)cc1 (stereo not drawn) [Compound I-158, 5-(2-(4-(1-(cyclopropylamino)ethyl)phenylamino)-5-fluoropyrimidin-4-ylamino)benzo[d]oxazol-2(3H)-one formate salt]
22 | < 500 | COc1cccc(Nc2ncc(C)c(Nc3ccc4oc(=O)[nH]c4c3)n2)n1 [II-20, N2-(6-methoxypyridin-2-yl)-5-methyl-N4-(2-oxo-2,3-dihydro-1,3-benzoxazol-5-yl)-2,4-pyrimidinediamine]
23 | < 500 | Cc1cc(Nc2ncc(F)c(Nc3ccc4oc(=O)[nH]c4c3)n2)cc(C)c1C#N [Compound I-70, 4-(5-fluoro-4-(2-oxo-2,3-dihydrobenzo[d]oxazol-5-ylamino)pyrimidin-2-ylamino)-2,6-dimethylbenzonitrile]
24 | < 500 | Cc1cc(Nc2ncc(Br)c(Nc3ccc4oc(=O)[nH]c4c3)n2)cc(C)c1C [Compound I-16, 5-(5-bromo-2-(3,4,5-trimethylphenylamino)pyrimidin-4-ylamino)benzo[d]oxazol-2(3H)-one formate salt]
25 | < 500 | C=Cc1cccc(Nc2ncc(C)c(Nc3ccc4oc(=O)[nH]c4c3)n2)c1 [Compound I-65, 5-[5-Methyl-2-(3-vinyl-phenylamino)-pyrimidin-4-ylamino]-3H-benzooxazol-2-one trifluoroacetate salt]
26 | < 500 | O=C1CCCc2cc(Nc3ncc(F)c(Nc4ccc5oc(=O)[nH]c5c4)n3)ccc2N1 [II-27, 7-(4-(2,3-dihydro-2-oxobenzo[d]oxazol-5-ylamino)-5-fluoropyrimidin-2-ylamino)-4,5-dihydro-1H-benzo[b]azepin-2(3H)-one trifluoroacetate salt]
27 | < 500 | COC(=O)c1cc(Nc2ncc(C)c(Nc3ccc4oc(=O)[nH]c4c3)n2)cc(C)c1C [Compound I-144, N2-(3,4-dimethyl-5-methoxycarbonyl)phenyl-5-methyl-N4-(2-oxo-2,3-dihydro-1,3-benzoxazol-5-yl)-2,4-pyrimidinediamine]
